Data as given in ChEMBL document CHEMBL2029314, “Discovery of HIV fusion inhibitors targeting gp41 using a comprehensive α-helix mimetic library” (Bioorg Med Chem Lett, 2012).
pIC50, pKi: −log10 of the molar value.

Experiments:
[1] = Displacement of C18-Aib-lucifer yellow from HIV1 envelope glycoprotein gp41 Fe(env2.0)3 by fluorescence assay; parameters: species or system Human immunodeficiency virus 1
[2] = Inhibition of HIV1 envelope glycoprotein 41-mediated membrane fusion between virus-transfected human HL2/3 cells and human TZM-bl cells after 6 hrs by luciferase reporter assay; assay type: cell-based; conditions: Human immunodeficiency virus 1, TZM-bl

| SMILES | pKi [1] | pIC50 [2] |
| --- | --- | --- |
| CSCC[C@H](N)C(=O)Nc1ccc(C(=O)N[C@@H](CCc2ccccc2)C(=O)O)cc1OCc1ccc(Cl)cc1 | > 4.60 |  |
| N[C@@H](CCc1ccccc1)C(=O)Nc1ccc(C(=O)N[C@@H](CCc2ccccc2)C(=O)O)cc1OCc1ccc(Cl)cc1 | > 4.60 |  |
| N[C@@H](Cc1ccc(O)cc1)C(=O)Nc1ccc(C(=O)N[C@@H](CCc2ccccc2)C(=O)O)cc1OCc1ccc(Cl)cc1 | > 4.60 |  |
| N[C@@H](Cc1c[nH]c2ccccc12)C(=O)Nc1ccc(C(=O)N[C@@H](CCc2ccccc2)C(=O)O)cc1OCc1ccc(Cl)cc1 | > 4.60 |  |
| CC[C@H](C)[C@H](N)C(=O)Nc1ccc(C(=O)N[C@@H](CCc2ccccc2)C(=O)O)cc1OCc1ccc(Cl)cc1 | > 4.60 |  |
| CSCC[C@H](N)C(=O)Nc1ccc(C(=O)N[C@@H](CCc2ccccc2)C(=O)O)cc1OCc1ccc2ccccc2c1 | > 5.00 |  |
| CC(C)C[C@H](NC(=O)c1ccc(NC(=O)[C@@H](N)CO)c(OCCc2c[nH]c3ccccc23)c1)C(=O)O | > 5.00 |  |
| CC(C)C[C@H](NC(=O)c1ccc(NC(=O)[C@@H](N)CC(=O)O)c(OCCc2c[nH]c3ccccc23)c1)C(=O)O | > 5.00 |  |
| CC(C)C[C@H](NC(=O)c1ccc(NC(=O)[C@@H](N)Cc2ccc3ccccc3c2)c(OCCc2c[nH]c3ccccc23)c1)C(=O)O | > 5.00 |  |
| CC(C)C[C@H](NC(=O)c1ccc(NC(=O)[C@@H](N)CC(N)=O)c(OCCc2c[nH]c3ccccc23)c1)C(=O)O | > 5.00 |  |
| CC(C)C[C@H](N)C(=O)Nc1ccc(C(=O)N[C@@H](CCc2ccccc2)C(=O)O)cc1OCc1ccc2ccccc2c1 | > 5.00 |  |
| CC[C@H](C)[C@H](N)C(=O)Nc1ccc(C(=O)N[C@@H](CCc2ccccc2)C(=O)O)cc1OCc1ccc2ccccc2c1 | > 5.00 |  |
| N[C@@H](CC(=O)O)C(=O)Nc1ccc(C(=O)N[C@@H](CCc2ccccc2)C(=O)O)cc1OCc1ccc2ccccc2c1 | > 5.00 |  |
| N[C@@H](Cc1ccc(O)cc1)C(=O)Nc1ccc(C(=O)N[C@@H](CCc2ccccc2)C(=O)O)cc1OCc1ccc2ccccc2c1 | > 5.00 |  |
| N[C@@H](Cc1c[nH]c2ccccc12)C(=O)Nc1ccc(C(=O)N[C@@H](CCc2ccccc2)C(=O)O)cc1OCc1ccc2ccccc2c1 | > 5.00 |  |
| N[C@@H](CCc1ccccc1)C(=O)Nc1ccc(C(=O)N[C@@H](CCc2ccccc2)C(=O)O)cc1OCc1ccc2ccccc2c1 | > 5.00 |  |
| CC(C)[C@H](NC(=O)c1ccc(N)c(OCc2ccc(O)cc2)c1)C(=O)O |  | > 4.52 |
| CC[C@H](NC(=O)c1ccc(N)c(OCc2ccc(O)cc2)c1)C(=O)O |  | > 4.52 |

| SMILES | pKi [1] | pIC50 [2] |
| --- | --- | --- |
| CSCC[C@H](NC(=O)c1ccc(N)c(OCc2ccc(O)cc2)c1)C(=O)O |  | > 4.52 |
| Nc1ccc(C(=O)N[C@@H](CO)C(=O)O)cc1OCc1ccc(O)cc1 |  | > 4.52 |
| Nc1ccc(C(=O)N[C@@H](Cc2ccc(O)cc2)C(=O)O)cc1OCc1ccc(O)cc1 |  | > 4.52 |
| NC(=O)C[C@H](NC(=O)c1ccc(N)c(OCc2ccc(O)cc2)c1)C(=O)O |  | > 4.52 |
| Nc1ccc(C(=O)N[C@@H](Cc2ccc3ccccc3c2)C(=O)O)cc1OCc1ccc(O)cc1 |  | > 4.52 |
| CC[C@H](C)[C@H](NC(=O)c1ccc(N)c(OCCc2c[nH]c3ccccc23)c1)C(=O)O |  | > 4.52 |
| CC(C)C[C@H](NC(=O)c1ccc(N)c(OCCc2c[nH]c3ccccc23)c1)C(=O)O |  | > 4.52 |
| Nc1ccc(C(=O)N[C@@H](CCc2ccccc2)C(=O)O)cc1OCCc1c[nH]c2ccccc12 |  | > 4.52 |
| Nc1ccc(C(=O)N[C@@H](Cc2ccc(Cl)cc2)C(=O)O)cc1OCCc1c[nH]c2ccccc12 |  | > 4.52 |
| CC[C@H](C)[C@H](NC(=O)c1ccc(N)c(OCc2ccc(Cl)cc2)c1)C(=O)O |  | > 4.52 |
| Nc1ccc(C(=O)N[C@@H](Cc2ccc3ccccc3c2)C(=O)O)cc1OCc1ccc(Cl)cc1 |  | > 4.52 |
| CC[C@H](C)[C@H](NC(=O)c1ccc(N)c(OCc2ccc3ccccc3c2)c1)C(=O)O |  | > 4.52 |
| CC(C)C[C@H](NC(=O)c1ccc(N)c(OCc2ccc3ccccc3c2)c1)C(=O)O |  | > 4.52 |
| Nc1ccc(C(=O)N[C@@H](CCc2ccccc2)C(=O)O)cc1OCc1ccc2ccccc2c1 |  | > 4.52 |
| Nc1ccc(C(=O)N[C@@H](CC(=O)O)C(=O)O)cc1OCc1ccc2ccccc2c1 |  | > 4.52 |
| Nc1ccc(C(=O)N[C@@H](Cc2ccccc2)C(=O)O)cc1OCc1ccc2ccccc2c1 |  | > 4.52 |
| Nc1ccc(C(=O)N[C@@H](Cc2ccc(O)cc2)C(=O)O)cc1OCc1ccc2ccccc2c1 |  | > 4.52 |
| COc1ccc(C[C@H](NC(=O)c2ccc(N)c(OCc3ccc4ccccc4c3)c2)C(=O)O)cc1 |  | > 4.52 |

Results, then the compound that gave them:

| pKi [1] | pIC50 [2] | SMILES |
| --- | --- | --- |
| > 5.00 |  | N[C@@H](CC(=O)O)C(=O)Nc1ccc(C(=O)N[C@@H](Cc2c[nH]c3ccccc23)C(=O)O)cc1OCCc1c[nH]c2ccccc12 |
| 6.22 |  | N[C@@H](CC(=O)O)C(=O)Nc1ccc(C(=O)N[C@H](CC(=O)O)Cc2c[nH]c3ccccc23)cc1OCCc1c[nH]c2ccccc12 |
| > 5.00 |  | CSCC[C@H](N)C(=O)Nc1ccc(C(=O)N[C@@H](Cc2c[nH]c3ccccc23)C(=O)O)cc1OCCc1c[nH]c2ccccc12 |
| 4.74 |  | N[C@@H](CC(=O)O)C(=O)Nc1ccc(C(=O)NCCc2c[nH]c3ccccc23)cc1OCCc1c[nH]c2ccccc12 |
| > 5.00 |  | N[C@@H](Cc1ccc2ccccc2c1)C(=O)Nc1ccc(C(=O)N[C@@H](Cc2c[nH]c3ccccc23)C(=O)O)cc1OCCc1c[nH]c2ccccc12 |
|  | 5.30 | CC(C)C[C@H](NC(=O)c1ccc(NC(=O)[C@@H](N)Cc2c[nH]c3ccccc23)c(OCCc2c[nH]c3ccccc23)c1)C(=O)O |
| > 5.00 |  | C[C@H](N)C(=O)Nc1ccc(C(=O)N[C@@H](Cc2c[nH]c3ccccc23)C(=O)O)cc1OCCc1c[nH]c2ccccc12 |
| > 5.00 |  | CC[C@H](N)C(=O)Nc1ccc(C(=O)N[C@@H](Cc2c[nH]c3ccccc23)C(=O)O)cc1OCCc1c[nH]c2ccccc12 |
| > 5.00 |  | CC(C)[C@H](N)C(=O)Nc1ccc(C(=O)N[C@@H](Cc2c[nH]c3ccccc23)C(=O)O)cc1OCCc1c[nH]c2ccccc12 |
| > 5.00 |  | CC(C)C[C@H](N)C(=O)Nc1ccc(C(=O)N[C@@H](Cc2c[nH]c3ccccc23)C(=O)O)cc1OCCc1c[nH]c2ccccc12 |
| > 5.00 |  | CC[C@H](C)[C@H](N)C(=O)Nc1ccc(C(=O)N[C@@H](Cc2c[nH]c3ccccc23)C(=O)O)cc1OCCc1c[nH]c2ccccc12 |
| > 5.00 |  | N[C@@H](CO)C(=O)Nc1ccc(C(=O)N[C@@H](Cc2c[nH]c3ccccc23)C(=O)O)cc1OCCc1c[nH]c2ccccc12 |
| > 5.00 |  | C[C@@H](O)[C@H](N)C(=O)Nc1ccc(C(=O)N[C@@H](Cc2c[nH]c3ccccc23)C(=O)O)cc1OCCc1c[nH]c2ccccc12 |
| > 5.00 |  | N[C@@H](Cc1ccccc1)C(=O)Nc1ccc(C(=O)N[C@@H](Cc2c[nH]c3ccccc23)C(=O)O)cc1OCCc1c[nH]c2ccccc12 |
| > 5.00 |  | N[C@@H](Cc1ccc(O)cc1)C(=O)Nc1ccc(C(=O)N[C@@H](Cc2c[nH]c3ccccc23)C(=O)O)cc1OCCc1c[nH]c2ccccc12 |
| 6.15 | 5.10 | COc1ccc(C[C@H](N)C(=O)Nc2ccc(C(=O)N[C@@H](Cc3c[nH]c4ccccc34)C(=O)O)cc2OCCc2c[nH]c3ccccc23)cc1 |
| > 5.00 |  | N[C@@H](Cc1c[nH]c2ccccc12)C(=O)Nc1ccc(C(=O)N[C@@H](Cc2c[nH]c3ccccc23)C(=O)O)cc1OCCc1c[nH]c2ccccc12 |
| 6.10 | 5.22 | NC(=O)C[C@H](N)C(=O)Nc1ccc(C(=O)N[C@@H](Cc2c[nH]c3ccccc23)C(=O)O)cc1OCCc1c[nH]c2ccccc12 |
| 4.68 |  | COC(=O)[C@H](Cc1c[nH]c2ccccc12)NC(=O)c1ccc(NC(=O)[C@@H](N)CC(=O)O)c(OCCc2c[nH]c3ccccc23)c1 |
| 6.22 |  | O=C(O)CCC(=O)Nc1ccc(C(=O)N[C@@H](Cc2c[nH]c3ccccc23)C(=O)O)cc1OCCc1c[nH]c2ccccc12 |
| 4.30 |  | COc1ccc(C[C@H](N)C(=O)Nc2ccc(C(=O)N[C@H](CC(=O)O)Cc3c[nH]c4ccccc34)cc2OCCc2c[nH]c3ccccc23)cc1 |
| 4.00 |  | COc1ccc(C[C@H](N)C(=O)Nc2ccc(C(=O)N[C@H](CCC(=O)O)Cc3c[nH]c4ccccc34)cc2OCCc2c[nH]c3ccccc23)cc1 |
|  | > 4.52 | Nc1ccc(C(=O)N[C@@H](Cc2c[nH]c3ccccc23)C(=O)O)cc1OCCc1c[nH]c2ccccc12 |
